The text below walks through data of US11066436B2, “5′-phosphorothiolate mRNA 5′-end (cap) analogs, mRNA comprising the same, method of obtaining and uses thereof” (Uniwersytet Warszawski, priority 2016, dated 2021).

The target in one experiment is T1, hDcpS enzyme (Homo sapiens, UniProt Q96C86).
T1 construct: made in house
T1 sequence (Q96C86 1-337): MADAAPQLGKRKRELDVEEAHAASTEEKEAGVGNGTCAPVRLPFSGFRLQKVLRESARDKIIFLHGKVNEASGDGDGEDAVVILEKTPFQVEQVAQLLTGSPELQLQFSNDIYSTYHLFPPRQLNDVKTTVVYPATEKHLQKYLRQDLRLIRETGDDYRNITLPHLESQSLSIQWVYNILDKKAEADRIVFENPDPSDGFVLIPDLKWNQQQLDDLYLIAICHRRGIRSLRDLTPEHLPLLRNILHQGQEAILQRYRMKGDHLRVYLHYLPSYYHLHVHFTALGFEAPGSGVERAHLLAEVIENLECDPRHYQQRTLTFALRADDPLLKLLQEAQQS
The experiment is described as follows: IC50 determination for selected inhibitors of DcpS (fluorescence, m^7GMPF probe). Conditions: for IC50: m^7GMPF 60 μM, hDcpS 50 nM, tested compound 0-50 μM. The experiment is classed as biochemical. As for the experimental part:
Test 2. IC50 Determination for Selected Inhibitors
The buffer in this test and in the test 1 is the same. Ten mixture reactions were prepared at the same time and each of them contained a m^7GMPF (60 μM), hDcpS enzyme (50 nM) and the tested compound in concentration range between 0-50 μM in 200 μl of buffer. After appropriate time, when 30% of substrate were converted into product without inhibitor, the reaction was stopped by mixing with 100 μl of ACN. Samples of 25 μl were taken for analysis, followed by mixing with 90 μl of TBDS-fluorescein solution of concentration 2.5 μM in DMSO and incubated for 60 min. Next, 100 μl of 200 mM HEPES buffer pH=7.0 was added to the samples and the fluorescence was measured as described in general information. Based on the results, dependence of inhibitor concentration vs. fluorescence were plotted and the IC50 values were determined by fitting theoretical curve to data.

Experiment [1] deals with T2, human DcpS enzyme (hDcpS) (Homo sapiens, UniProt Q96C86).
T2 construct: made in house
T2 sequence (Q96C86 1-337): T1 sequence (Q96C86 1-337)
Briefly: Susceptibility of cap analogs to degradation by DcpS enzyme (RP-HPLC). The experiment is classed as biochemical. Conditions: for DcpS susceptibility: cap analog 20 μM, hDcpS 100 nM, RP-HPLC; for hydrolysis by hDcpS: tested as substrates of hDcpS, RP HPLC. As to the method:
Test 1. The Susceptibility Study of Analogs to Degradation by DcpS Enzyme.
The aim of the test was to check if new 5′-thiophosphate cap analogs are hydrolyzed by human DcpS enzyme (hDcpS). Recombinant human protein encoding DcpS enzyme was expressed as described previously (Kowalska, Lewdorowicz et al. 2008). The susceptibility of new analogs to hDcpS hydrolysis is tested in 50 mM Tris-HCl buffer containing 200 mM KCl and 0.5 mM EDTA. Reaction mixture includes the tested cap analog (20 μM) and hDcpS enzyme (100 nM) in 400 μl of buffer. At the appropriate intervals 100 μl sample is collected from the reaction mixture. Sample is incubated at 98° C. for 2.5 min, and then cooled to 0° C. and analyzed on RP-HPLC under conditions described in general informations. In tests also commercially available inhibitor of DcpS was tested, the compound RG3039 (no. 000) (https://www.mda.org/quest/fda-approves-phase-1-clinical-trial-rg3039-sma), GppSG (no. 19), GpppSG (no. 20), as well m^7GpppG (no. 0) and m^7Gpp (no. 00) as controls. Exemplary results obtained are shown on FIG. 5 and Table 5.

“Also recorded” adds a separate entry of the source. A value given as a limit tells only on which side of the number the result lay.

With `C[n+]1cn([C@@H]2O[C@H](CSP(=O)(O)OP(=O)([S-])OP(=O)(O)SC[C@H]3O[C@@H](n4cnc5c(=O)[nH]c(N)nc54)C(O)C3O)C(O)C2O)c2nc(N)nc(O)c21` (single isomer, unassigned) [compound 33], the IC50 – broadly, the point on the concentration scale where inhibition reaches its midpoint – on hDcpS enzyme was determined as 260 ± 40 nM. In experiment [1], the DcpS susceptibility entry was “resistant/inhibitor” and the “hydrolysis by hDcpS” value is “stability in the presence of DcpS enzyme”.

Regarding `C[n+]1cn([C@@H]2O[C@H](CSP(=O)(O)OP(=O)([S-])OP(=O)(O)SC[C@H]3O[C@@H](n4cnc5c(=O)[nH]c(N)nc54)C(O)C3O)C(O)C2O)c2nc(N)nc(O)c21` (single isomer, unassigned) [compound 34], the “inhibition of hDcpS” value against hDcpS enzyme (fluorescence method and fluorogenic probe) is reported as “best inhibitory properties”. This compound showed an IC50 at hDcpS enzyme of 51 ± 8 nM. In experiment [1], the DcpS susceptibility entry is reported as “resistant/inhibitor” and the “hydrolysis by hDcpS” value is “stability in the presence of DcpS enzyme”.

With `C[n+]1cn([C@@H]2O[C@H](COP(=O)(O)OP(=O)([O-])SC[C@H]3O[C@@H](n4cnc5c(=O)[nH]c(N)nc54)C(O)C3O)C(O)C2O)c2nc(N)nc(O)c21` (stereo in doubt) [compound 21], in experiment [1], the DcpS susceptibility entry is reported as “hydrolyzable” and the “hydrolysis by hDcpS” value is “hydrolyzed”.

With `C[n+]1cn([C@@H]2O[C@H](CSP(=O)([O-])OP(=O)(O)OC[C@H]3O[C@@H](n4cnc5c(=O)[nH]c(N)nc54)C(O)C3O)C(O)C2O)c2nc(N)nc(O)c21` (stereo in doubt) [compound 23], at hDcpS enzyme, the IC50 worked out at 2810 ± 510 nM. Moreover, in experiment [1], the DcpS susceptibility entry is listed as “resistant/inhibitor” and the “hydrolysis by hDcpS” value is listed as “stability in the presence of DcpS enzyme”.

At hDcpS enzyme, `C[n+]1cn([C@@H]2O[C@H](COP(=O)(O)OP(=O)(O)O)[C@@H](O)[C@H]2O)c2nc(N)nc([O-])c21` [compound 00] yielded an IC50 of 4300 ± 780 nM. The DcpS susceptibility result in experiment [1] was “resistant/inhibitor”.

As to `C[n+]1cn([C@@H]2O[C@H](CSP(=O)([O-])OP(=O)(O)O)C(O)[C@@H]2O)c2nc(N)nc(O)c21` (stereo partly drawn) [compound 12], the IC50 against hDcpS enzyme is 1930 ± 380 nM. Further, in experiment [1], the DcpS susceptibility entry is listed as “resistant/inhibitor” and the “hydrolysis by hDcpS” value is on record as “stability in the presence of DcpS enzyme”.

The compound `Nc1nc2c(ncn2[C@@H]2O[C@H](COP(=O)(O)OP(=O)(O)SC[C@H]3O[C@@H](n4cnc5c(=O)[nH]c(N)nc54)[C@H](O)[C@@H]3O)[C@@H](O)[C@H]2O)c(=O)[nH]1` [compound 19] yielded an IC50 against hDcpS enzyme of more than 100000 nM. In addition, the DcpS susceptibility result in experiment [1] is “hydrolyzable”.

Regarding `Nc1nc2c(ncn2[C@@H]2O[C@H](COP(=O)(O)OP(=O)(O)OP(=O)(O)SC[C@H]3O[C@@H](n4cnc5c(=O)[nH]c(N)nc54)[C@H](O)[C@@H]3O)[C@@H](O)[C@H]2O)c(=O)[nH]1` [compound 20], the IC50 against hDcpS enzyme is more than 100000 nM. The DcpS susceptibility result in experiment [1] is reported as “hydrolyzable”.

With `C[n+]1cn([C@@H]2O[C@H](COP(=O)(O)OP(=O)(O)OP(=O)([O-])SC[C@H]3O[C@@H](n4cnc5c(=O)[nH]c(N)nc54)C(O)C3O)C(O)C2O)c2nc(N)nc(O)c21` (stereo partly drawn) [compound 22], in experiment [1], the DcpS susceptibility result is “hydrolyzable” and the “hydrolysis by hDcpS” value is given as “hydrolyzed”.

Take `C[n+]1cn([C@@H]2O[C@H](CSP(=O)([O-])OP(=O)(O)OP(=O)(O)OC[C@H]3O[C@@H](n4cnc5c(=O)[nH]c(N)nc54)C(O)C3O)C(O)C2O)c2nc(N)nc(O)c21` (stereo partly drawn) [compound 24]: at hDcpS enzyme, the IC50 came out at 840 ± 70 nM. Moreover, in experiment [1], the DcpS susceptibility entry is given as “resistant/inhibitor” and the “hydrolysis by hDcpS” value is “resistant; also recorded: stability in the presence of DcpS enzyme”.

The compound `C[n+]1cn([C@@H]2O[C@H](CSP(=O)([O-])OP(=O)(O)CP(=O)(O)OC[C@H]3O[C@@H](n4cnc5c(=O)[nH]c(N)nc54)C(O)C3O)C(O)C2O)c2nc(N)nc(O)c21` (stereo partly drawn) [compound 25] yielded an IC50 at hDcpS enzyme of 6250 ± 1220 nM. In experiment [1], the DcpS susceptibility entry is reported as “resistant/inhibitor” and the “hydrolysis by hDcpS” value is given as “stability in the presence of DcpS enzyme”.

With `COC1C(O)[C@@H](CSP(=O)([O-])OP(=O)(O)OP(=O)(O)OC[C@H]2O[C@@H](n3cnc4c(=O)[nH]c(N)nc43)C(O)C2O)O[C@H]1n1c[n+](C)c2c(O)nc(N)nc21` (stereo partly drawn) [compound 26], the IC50 against hDcpS enzyme was 12600 ± 5220 nM. Besides, in experiment [1], the DcpS susceptibility result is “resistant/inhibitor” and the “hydrolysis by hDcpS” value was “stability in the presence of DcpS enzyme”.

Consider `C[n+]1cn([C@@H]2O[C@H](CSP(=O)(O)OP(=O)([S-])OP(=O)(O)OC[C@H]3O[C@@H](n4cnc5c(=O)[nH]c(N)nc54)C(O)C3O)C(O)C2O)c2nc(N)nc(O)c21` (stereo partly drawn) [compound 30], for which the IC50 against hDcpS enzyme is 230 ± 40 nM. In addition, in experiment [1], the DcpS susceptibility result was “resistant/inhibitor” and the “hydrolysis by hDcpS” value is given as “stability in the presence of DcpS enzyme”.

Compound `C[n+]1cn([C@@H]2O[C@H](CSP(=O)(O)OP(=O)([S-])OP(=O)(O)OC[C@H]3O[C@@H](n4cnc5c(=O)[nH]c(N)nc54)C(O)C3O)C(O)C2O)c2nc(N)nc(O)c21` (stereo partly drawn) [compound 31] had an IC50 against hDcpS enzyme of 170 ± 20 nM. In addition, in experiment [1], the DcpS susceptibility entry is given as “resistant/inhibitor” and the “hydrolysis by hDcpS” value is “stability in the presence of DcpS enzyme”.

On hDcpS enzyme, `C[n+]1cn([C@@H]2O[C@H](CSP(=O)([O-])OP(=O)(O)OP(=O)(O)SC[C@H]3O[C@@H](n4cnc5c(=O)[nH]c(N)nc54)C(O)C3O)C(O)C2O)c2nc(N)nc(O)c21` (stereo partly drawn) [compound 32] showed an IC50 of 330 ± 90 nM. Further, in experiment [1], the DcpS susceptibility entry was “resistant/inhibitor” and the “hydrolysis by hDcpS” value was “stability in the presence of DcpS enzyme”.

In the case of `C[n+]1cn([C@@H]2O[C@H](COP(=O)(O)OP(=O)([S-])OP(=O)(O)SC[C@H]3O[C@@H](n4cnc5c(=O)[nH]c(N)nc54)C(O)C3O)C(O)C2O)c2nc(N)nc(O)c21` (stereo partly drawn) [compound 35], in experiment [1], the DcpS susceptibility result is “hydrolyzable” and the “hydrolysis by hDcpS” value is “hydrolyzed”.

On to `C[n+]1cn([C@@H]2O[C@H](COP(=O)(O)OP(=O)([S-])OP(=O)(O)SC[C@H]3O[C@@H](n4cnc5c(=O)[nH]c(N)nc54)C(O)C3O)C(O)C2O)c2nc(N)nc(O)c21` (stereo partly drawn) [compound 36], for which, in experiment [1], the DcpS susceptibility result is “hydrolyzable” and the “hydrolysis by hDcpS” value is reported as “hydrolyzed”.

Take `C[n+]1cn([C@@H]2O[C@H](COP(=O)(O)CP(=O)(O)OP(=O)([O-])SC[C@H]3O[C@@H](n4cnc5c(=O)[nH]c(N)nc54)C(O)C3O)C(O)C2O)c2nc(N)nc(O)c21` (stereo partly drawn) [compound 37]: the IC50 at hDcpS enzyme came to 5670 ± 1010 nM. For the same compound, in experiment [1], the DcpS susceptibility entry is “resistant/inhibitor” and the “hydrolysis by hDcpS” value was “resistant to hydrolysis; also recorded: stability in the presence of DcpS enzyme”.

`COC1C(O)[C@@H](COP(=O)(O)OP(=O)(O)OP(=O)([O-])SC[C@H]2O[C@@H](n3cnc4c(=O)[nH]c(N)nc43)C(O)C2O)O[C@H]1n1c[n+](C)c2c(O)nc(N)nc21` (stereo partly drawn) [compound 38]: it took 72000 ± 17000 nM to reach half-maximal inhibition on hDcpS enzyme (IC50). Besides, in experiment [1], the DcpS susceptibility entry was “hydrolyzable” and the “hydrolysis by hDcpS” value is given as “hydrolyzed”.
